Laboratory results published in patent US6602852B1, “Basic peptides and pharmaceutical compositions containing same” (NST NeuroSurvival Technologies, Ltd., priority 1998, dated 2003).
Like-named read-outs stand apart in the source and are kept apart here.

What was measured:
[1] = tested on: apoptotic hepatocytes; type: in vivo; conditions: data not shown
Protocol: All animals were killed 2 hr after administration of antibody followed by organ removal. Heart, lung and liver were collected.
Formalin fixed paraffin-embedded tissues were sectioned (5 μm) for staining with Hematoxylin/Eosin or other techniques.
Endogenous peroxidase activity was blocked by incubation with 3% H2O2.
After washing with PBS, staining was developed with 3,3-diaminobenzidine tetrahydrochloride (DAB), and counterstained with Hematoxylin.
Liver sections from different lobes were used for detection of stained apoptotic cells compared to normal cells.
The percentage of apoptotic cells in the fields was estimated by evaluating parallel sections stained with Hematoxylin/Eosin. Analysis was performed blindly, since the pathologist performing the histological evaluation was unaware of the assignment of mice to the treatment or control group.

[2] = biological target: anionic phospholipid membranes; conditions: cited from earlier work
[3] = rabbits, intravenous injection; cited from earlier work
[4] = tested on: Human Umbilical Vein Endothelial Cells (HUVEC); conditions: 500 ng of compound, 40 minutes
Protocol: HUVEC (CC-2517, obtained from Clonetics, Walkersville, Md.) were grown on tissue culture flasks in Endothelial cell medium (EGM-2 Bulletkit, CC 3162, Clonetics). Mid-confluent cultures were harvested using Trypsine/EDTA solution (CC-5012, Clonetics). The cells were rinsed twice with PBS containing 2% BSA and kept on ice. Samples of 10^6 cells were tested for binding.
The reactions were incubated at room temperature for 40 minutes and then 400 μl of TBS-BSA were added and cells were collected by centrifugation at 3000×g for 3 minutes. Cells were washed in 1 ml of TBS-BSA and centrifuged as before and then suspended in 100 μl of TBS-BSA containing streptavidin conjugated to flourescein (FITC) for detection of the bound biotinylated compound. […] Thereafter, 400 μl of TBS-BSA were added and cells were centrifuged and washed again with 1 ml of TBS-BSA as before and then resuspended in 400 μl of TSS and taken for FACS analysis.
The FACS analysis was performed on Beckton-Dickinson cell sorter, using lysis II software. Excitation was at 488 nm and emission for FITC detection was a 535 nm.
A dot plot analysis was done for each treatment.

[5] = tested on: HeLa S3 cells undergoing dopamine (DA)-induced apoptosis
Protocol: Said compounds were each dissolved in TBS (Tris Buffered Saline; 10 mM Tris PH 8.0; 150 mM NaCl), at a stock concentration of 10 mM.
HeLa S3 cells (ATCC CCL-2.2) were cultured on a glass chamber slide (Nunc) on a culture area of […]. Chamber slides were pre-coated with 1% gelatin (Sigma) Cells were seeded at a density of 8×10^4 cells/chamber, in a volume of 300 μl of culture medium [Dulbecco's Modified Eagle's Medium (DMEM) supplemented with 2 mM of L-Glutamine; 100 units/ml of Penicilin; 100 μg/ml of Streptomycin; 12.5 units/ml of Nystatin and 10% of Fetal Calf Serum (FCS)]. Following 24 hours of incubation the cells were treated with an apoptotic trigger [i.e. dopamine (DA), which is a well characterized model of apoptosis (Lou et al., J. Biol. Chem. 1998; 273:3756-3764)].
For the DA treatment, the culture medium was replaced by a low serum containing medium (2% FCS), with 500 μM of dopamine (from RBI, Mass., USA) for 18 hours.
The evaluation was performed by staining with Hoechst 33342 dye (Molecular probes). This blue fluorescent dye is rapidly permeable into cells and stains DNA. Hoechst 33342 was added to growing cultures at a concentration of 1 μg/ml and 20 minutes later, the cells were visualized under UV light microscopy. The relative number of apoptotic cells with condensed or fragmented chromatin was then evaluated and compared with non-apoptotic cells which characteristically show a pale and diffuse staining. Photomicrographs were taken for documentation. […] This method was used to evaluate the level of apoptosis in cultured cells prior to binding to the NST300 compounds.
Apoptotic, as well as control untreated cells were grown as specified above and washed twice with TBS. The slides were then incubated with the NST300 compound at concentrations of 250-750 nM for 60 minutes, in a total volume of 100 μl. Slides were then dipped into a Couplin Jar containing 50 ml of TBS, and then incubated with 50 ng/ml of a sterptavidin reagent labeled with FITC (Fluorescein Isothiocyanate Conjugated, from Jackson Immunolaboratory U.S.A.). […] The slides were then washed with TBS as above and were then mounted with Fluoroguard antifade reagent (from Biorad Calif., USA).
The binding was then evaluated with a fluorescent microscope (IX70; Olympus), using a NIBA filter (Narrow Interference Blue A from Olympus).

[6] = tested on: clotting induced by negatively charged phospholipids in normal plasma
Protocol: The ability of NST300 compounds to inhibit coagulaton catalyzed by negatively—charged phospholipids was evaluated in a standard coagulation test of the Russell viper venom (RVV) assay. The RVV reagent directly activates factor x present in the plasma, thus promoting prothrombinase complex formation. This reagent is widely used as a standard phospholipid responsive clotting test. (Thiagarajan et al., Blood, 1986; 869-874).
The RVV reagent kit, containing RVV and negatively charged phospholipids, from Gradipore, Australia was used. The reactions were started by mixing 100 μl of RVV reagent, and 100 μl of quality control plasma collected from normal individuals (commercially available from Instrumentation Laboratory, Italy). Clotting time was determined as the time-point beyond which the continuously mixed reaction ingredients in the test tube, could no longer be aspirated with a pasteur pipette. Clotting time was measured independently by two separate researchers.

[7] = tested on: procoagulant activity of apoptotic HeLa S3 cells; conditions: 0.5 μM; for effect on procoagulant effect of apoptotic cells: FIG. 5a
Protocol: In the standard APTT test, clot formation is triggered by recalcification of plasma and addition of cephalin, i.e. negatively-charged phospholipids. Time until clot formation was measured as described in Example 3. […] In the modified APTT test, used in the present study, the addition of negatively-charged phospholipids (cephalin) was replaced by addition of apoptotic cells.
The cultured medium was discarded, and cells that were loosely attached to the growing surface, were collected in PBS, as described in Example 2B. These cells were washed and resuspended in TBS, and were regarded as advanced apoptotic cells. Equal numbers of apoptotic or control non-treated cells (10^5) in a volume of 100 μl, were mixed with 100 μl of 25 mM of CaCl2 and the clotting time was measured. […] Inhibition of their procoagulant activity by NST300 compounds was tested following pre-incubation of apoptotic cells with the different NST300 compounds.
Pre-incubation of equal numbers of apoptotic or control non-treated cells (10^5) with NST300 compounds was for 10 minutes at room temperature in a final volume of 100 μl. The compounds were used at concentration of 0.5 μM. The results can be seen in FIG. 5a.

[8] = tested on: HeLa cells undergoing dopamine-induced apoptosis; conditions: 750 nM
Protocol: HeLa cells were plated on tissue culture plates at a density of 3×10^6 cells/10 cm dish, and grown in a DMEM medium containing 10% FCS, as described in A. The cells were then incubated at 37° C. overnight, and then the medium was replaced with a medium containing 2% FCS and 500 μM of dopamine. 18 hours later, the medium was aspirated and discarded, and 10 ml of Phosphate Buffered Saline pH 7.4 (PBS) were added to the culture dish. The cells which were detached from the culture dish into the PBS were collected. These cells represent advanced apoptotic cells. The remaining cells which were attached to the culture dish were trypsinized by the addition of 2 ml of trypsin for 2 minutes at 37° C., followed by the addition of 10 ml of a medium containing 10% of FCS. The cells were then washed with PBS containing 2% Bovine Serum Albumin (BSA), and resuspended in TBS containing 2% BSA (TBS-BSA). These cells were regarded as early apoptotic cells. […] Only non-treated cells that were attached to the culture dish were used as control cells for the FACS analysis.
A set of 3 different cell types was taken:
The incubation with the NST300 compounds or control compound was performed in a final volume of 100 μl TBS-BSA, 5 μg/ml of propidium iodide (PI) and 750 nM of the tested compound or the control compound.
PI is a red fluorescent dye that stains DNA. […] Only cells that are in advanced apoptotic stages, or cells that have already died by apoptosis or necrosis will be permeable to PI and will be stained with the dye. […] The cells were then washed in 500 μl of cold TBS-BSA and centrifugated as before. The cells were then suspended in 100 μl of TBS-BSA containing streptavidin conjugated to fluorescein (FITC). […] Thereafter, the cells were washed three times in TBS-BSA and were taken for FACS analysis.
The FACS analysis was performed on a Beckton-Dickinson cell sorter, using lysis II software. Excitation was at 488 nm and the emission or FITC detection was at 535 nm and for PI detection at 585 nm.

Substance	staining pattern when exogenously added to the apoptotic cells [1]	Kd [2]	clearance within 5 minutes [3]	cells FITC positive [4]	staining of DA-induced apoptotic HeLa cells ([5]; 250-750 nM compound, streptavidin-FITC, fluorescent microscopy)	anti-coagulant effect ([6]; RVV test, FIG. 4)	effect on procoagulant effect of apoptotic cells [7]	effect on procoagulant effect of apoptotic cells ([7]; listed as NST 301-C)	staining of advanced apoptotic cells ([5]; 750 nM, FIG. 2c)	staining of cells in early apoptotic stages ([5]; 750 nM, FIG. 2c)	staining of control non-treated HeLa cells ([5]; 750 nM, fluorescent microscopy)	increase of clotting time by a factor as compared to control ([6]; 0.5-50 μM, control clotting time 40 seconds)	increase of clotting time by a factor ([7]; apoptotic cells)	detection of early apoptotic cells ([8]; FIG. 3c)	early apoptotic cells double stained also with PI ([8]; early apoptotic cells)	binding intensity: ratio of FITC mean value of apoptotic cells to that of control cells ([8]; early apoptotic cells, FIG. 3b)	total FITC/total PI ratio ([8]; advanced apoptotic cells)	total FITC/total PI ratio ([8]; early apoptotic cells)
Annexin V: 320 amino acid protein of the annexin family, Ca2+-dependent binding to anionic phospholipid membranes	same pattern of staining	0.01 to 1 nM	90%															
GGGKKKKKRFSFKKSFKLSGFSFKKNKKK (SEQUENCE ID NO. 3) (Biotin)-OH [NST301-C, reference compound]				7%	did not show any significant binding	Significant, though moderate effect	mild effect	very modest effect										
Myristate-GGGKKKKKRFSFKKSFKLSGFSFKKNKKK (SEQUENCE ID NO. 1)-(biotin) [NST301]							fully reversing		intense labeling	light, peripheral staining	few of them were stained, and very faintly	2.6	2	potent detector	43%	4 fold	1.2	2.2
